Publication PMC4188605, “Biochemical and Pharmacological Characterization of the Human Lymphocyte Antigen B-Associated Transcript 5 (BAT5/ABHD16A)” (PLoS ONE, 2014)
Where two headings read alike, the source gives them in different places.

Tests used:
hBAT5 [1] = biological target: T1, hBAT5 (Homo sapiens, UniProt O95870); assay: Inhibition of 1-LG hydrolysis in hBAT5-HEK293 lysates (fluorescent glycerol assay); type: biochemical; design: host or cells: HEK293; conditions: for fold decrease in activity when methyl (40) is replaced: 5-position substituent, relative to 40; for hBAT5 inhibitory activity (in words): 1-LG hydrolysis; for remaining activity at 10 µM: at 10^-5 M
T1 sequence (O95870 1-558): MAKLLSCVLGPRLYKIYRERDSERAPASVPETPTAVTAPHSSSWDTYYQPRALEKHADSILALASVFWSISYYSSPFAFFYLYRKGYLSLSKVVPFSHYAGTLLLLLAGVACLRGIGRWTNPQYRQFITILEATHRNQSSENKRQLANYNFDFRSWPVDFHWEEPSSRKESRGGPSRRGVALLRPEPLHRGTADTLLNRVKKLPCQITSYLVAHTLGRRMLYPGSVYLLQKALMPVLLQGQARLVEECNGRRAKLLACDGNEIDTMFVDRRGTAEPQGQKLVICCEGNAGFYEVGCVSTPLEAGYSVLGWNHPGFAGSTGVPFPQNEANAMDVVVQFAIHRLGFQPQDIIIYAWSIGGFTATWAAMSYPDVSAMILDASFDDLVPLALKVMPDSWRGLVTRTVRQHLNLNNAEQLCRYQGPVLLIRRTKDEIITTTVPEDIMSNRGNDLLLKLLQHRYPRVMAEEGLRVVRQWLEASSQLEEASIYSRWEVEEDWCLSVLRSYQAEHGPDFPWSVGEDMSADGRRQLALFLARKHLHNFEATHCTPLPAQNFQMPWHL

MAGL = biological target: T2, MAGL (Mus musculus, UniProt O35678); assay: Competitive ABPP, mouse brain membrane proteome: MAGL doublet; conditions: reference inhibitor at the indicated concentration, used to identify the band (refs 21, 22)
T2 sequence (O35678 1-303): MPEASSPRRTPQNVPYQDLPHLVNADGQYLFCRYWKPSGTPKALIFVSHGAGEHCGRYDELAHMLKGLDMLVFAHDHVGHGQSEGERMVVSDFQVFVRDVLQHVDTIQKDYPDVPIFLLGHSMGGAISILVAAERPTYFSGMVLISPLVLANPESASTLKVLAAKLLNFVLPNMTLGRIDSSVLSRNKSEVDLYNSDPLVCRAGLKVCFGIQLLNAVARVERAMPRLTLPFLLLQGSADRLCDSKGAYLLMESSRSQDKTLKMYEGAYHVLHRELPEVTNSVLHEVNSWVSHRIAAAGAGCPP

hBAT5 [2] = biological target: T1, hBAT5; assay: hBAT5 substrate hydrolysis and Michaelis-Menten kinetics (glycerol assay, hBAT5-HEK293 lysates); conditions: 25 µM substrate
Method: HEK293 cells were transiently transfected with the cDNA encoding hBAT5, as detailed in the Methods section. After 48 h, cells were harvested and lysates prepared for hydrolase activity measurements using a sensitive fluorescent glycerol assay. […] Glycerol production was determined at time-point 60 min.
After 48 h, cells were harvested and lysates prepared for hydrolase activity measurements. Cellular lysates (0.3 µg/well) were incubated together with the indicated concentrations of 1-LG in assay mixes containing (+ BSA) or not (– BSA) 0.5% (w/v) BSA (A) or with 15d-PGJ2-G in assay mix containing BSA (B). […] As crude cellular lysates were used, total protein concentration was used instead of true enzyme concentration. […] Values are mean ± SEM from three independent experiments.
Glycerol liberated from the hydrolysis of glycerolipid substrates was determined kinetically using a fluorometric assay, essentially as previously described [10]. Briefly, glycerol production was coupled via a three-step enzymatic cascade to hydrogen peroxide (H2O2) dependent generation of resorufin whose fluorescence (λex 530; λem 590 nm) was kinetically monitored using a Tecan Infinite M200 plate reader (Tecan Group Ltd., Männedorf, Switzerland). The assays routinely contained 0.5% (w/v) BSA (essentially fatty acid free) as a carrier for lipophilic compounds. […] The twelve MAG substrates were tested also in assays without BSA. In addition, four commercially available PG-Gs were included. To monitor assay performance, assay blanks without enzyme, cellular background (HEK293/Mock cell lysates) as well as a glycerol standard were included for each tested substrate. Fluorescence of the assay blank was subtracted before calculation of the final results.

ABHD6 = biological target: T3, ABHD6 (Mus musculus, UniProt Q8R2Y0); assay: Competitive ABPP, mouse brain membrane proteome: ABHD6 band; conditions: reference inhibitor at the indicated concentration, used to identify the band (refs 18, 23, 24)
T3 sequence (Q8R2Y0 1-336): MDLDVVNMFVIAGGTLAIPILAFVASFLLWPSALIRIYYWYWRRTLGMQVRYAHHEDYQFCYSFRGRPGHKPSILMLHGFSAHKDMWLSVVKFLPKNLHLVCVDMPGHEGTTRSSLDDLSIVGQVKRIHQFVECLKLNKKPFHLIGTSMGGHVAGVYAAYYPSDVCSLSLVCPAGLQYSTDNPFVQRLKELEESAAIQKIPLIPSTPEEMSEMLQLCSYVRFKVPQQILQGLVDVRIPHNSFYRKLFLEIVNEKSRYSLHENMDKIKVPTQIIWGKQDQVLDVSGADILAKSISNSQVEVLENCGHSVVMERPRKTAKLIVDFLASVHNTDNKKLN

hBAT5 [3] = biological target: T1, hBAT5; assay: Free fatty acid release assay, hBAT5-HEK293 lysates; type: biochemical; design: host or cells: HEK293; conditions: 25 µM substrate; without BSA; 10 and 20 min
Method: (§1) Figure 4 Fatty acid liberation from various substrates when incubated together with lysates of HEK293 cells expressing hBAT5 or hABHD12. […] Assay blank and fatty acid standard (C18∶1) were included for each condition. FFA content was determined at time-points 10 and 20 min. Data are mean ± SEM from quadruplicate wells in one experiment.
(§2) We adapted the Free Fatty Acid Assay Kit (Cayman Chemical Item Number 700310) to kinetically monitor fatty acid release from selected substrates using lysates of HEK293 cells (0.3 µg/well) transiently expressing hBAT5 or hABHD12 (as a positive control). The assay protocol was tailored to closely follow the scheme of the 96-well-plate glycerol assay with the exception that BSA was omitted. […] For each tested substrate, assay blank without enzyme and a fatty acid standard (C18∶1-FA, 500 pmol/well) was included.

hABHD12 = biological target: T4, hABHD12 (Homo sapiens, UniProt Q8N2K0); assay: Free fatty acid release assay, hABHD12-HEK293 lysates; type: biochemical; conditions: 25 µM substrate; without BSA; 10 and 20 min
T4 construct: expressed in transfected cells; host or cells: HEK293
T4 sequence (Q8N2K0 1-398): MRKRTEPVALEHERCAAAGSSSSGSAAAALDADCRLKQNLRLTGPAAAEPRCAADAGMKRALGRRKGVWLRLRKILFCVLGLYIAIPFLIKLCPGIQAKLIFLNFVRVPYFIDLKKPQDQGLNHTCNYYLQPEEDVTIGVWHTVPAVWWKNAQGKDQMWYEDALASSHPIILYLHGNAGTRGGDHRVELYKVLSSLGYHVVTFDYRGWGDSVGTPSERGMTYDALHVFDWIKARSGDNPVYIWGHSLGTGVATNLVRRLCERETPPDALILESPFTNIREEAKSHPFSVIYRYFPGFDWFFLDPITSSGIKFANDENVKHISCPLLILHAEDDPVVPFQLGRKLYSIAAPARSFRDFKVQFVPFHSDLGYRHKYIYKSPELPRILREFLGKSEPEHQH
Method: as §1, §2

[4] = 1-LG 25 µM, 30 min inhibitor pretreatment, monitored 90 min, mean, n=3, read-out: IC50
[5] = printed as LogIC50 with negative sign, 1-LG 25 µM, 30 min pretreatment, Figures 9 and 10, read-out: LogIC50 Mean ± SEM, n=3 (converted)

COc1nn(-c2ccccc2F)c(=O)o1 [compound 42]
IC50 (hBAT5 [1]; [4]): 50 nM

CCOc1nn(-c2cccc([N+](=O)[O-])c2)c(=O)o1 [compound 51, 5-Ethoxy-3-(3-nitrophenyl)-1,3,4-oxadiazol-2(3H)-one]
IC50 (hBAT5 [1]; [4]): 126 nM
fold decrease in activity when methyl (40) is replaced (hBAT5 [1]): about twofold

O=C(N1CCC(C(c2ccc3c(c2)OCO3)c2ccc3c(c2)OCO3)CC1)n1cncn1 [JJKK-048]
inhibition of probe labeling of MAGL by reference inhibitor (MAGL): inhibited

COc1nn(-c2ccc([N+](=O)[O-])cc2)c(=O)o1 [compound 41, 5-Methoxy-3-(4-nitrophenyl)-1,3,4-oxadiazol-2(3H)-one]
IC50 (hBAT5 [1]; [4]): 339 nM

COc1nn(-c2ccccc2C)c(=O)o1 [compound 48]
hBAT5 inhibitory activity (in words) (hBAT5 [1]): inactive
remaining activity at 1 µM (hBAT5 [1]; at 10^-6 M, 1-LG 25 µM): 93.4 ± 1.9%

COc1nn(Cc2cccc([N+](=O)[O-])c2)c(=O)o1 [compound 50, 5-Methoxy-3-(3-nitrobenzyl)-1,3,4-oxadiazol-2(3H)-one]
hBAT5 inhibitory activity (in words) (hBAT5 [1]): loss of hBAT5 inhibitory activity
remaining activity at 10 µM (hBAT5 [1]; 1-LG 25 µM): 99.3 ± 4.7%

CCCCCCCCCCCCCCCC(=O)OC(CO)CO [MAGs C16∶0, 2-palmitoyl-rac–glycerol]
hydrolysis by hBAT5 (substrate utilization, in words) (hBAT5 [2]; without BSA): barely detectable hydrolysis

O=c1oc(Oc2ccccc2)nn1-c1cccc([N+](=O)[O-])c1 [compound 52, 3-(3-Nitrophenyl)-5-phenoxy-1,3,4-oxadiazol-2(3H)-one]
IC50 (hBAT5 [1]; [4]): 138 nM
fold decrease in activity when methyl (40) is replaced (hBAT5 [1]): about twofold

CCCCC[C@H](O)/C=C/[C@@H]1[C@@H](C/C=C\CCCC(=O)OCC(O)CO)[C@@H](O)C[C@H]1O (stereo partly drawn) [PG-F2α-G, prostaglandin F2α-1-glycerol ester]
hydrolysis by hBAT5 (substrate utilization, in words) (hBAT5 [2]; with 0.5% BSA, 60 min): low

COc1nn(Cc2cccc(Oc3ccccc3)c2)c(=O)o1 [compound 49]
hBAT5 inhibitory activity (in words) (hBAT5 [1]): loss of hBAT5 inhibitory activity
remaining activity at 10 µM (hBAT5 [1]; 1-LG 25 µM): 102 ± 8.2%

CN(Cc1cccc(-c2ccncc2)c1)C(=O)Oc1ccc(-c2ccc(C(N)=O)cc2)cc1 [WWL70]
inhibition of probe labeling of ABHD6 by reference inhibitor (ABHD6): inhibited

CCCCC[C@H](O)/C=C/[C@H]1[C@H](O)CC(=O)[C@@H]1C/C=C\CCCC(=O)OCC(O)CO (some centres unmarked) [PGE2-G, prostaglandin E2-1-glycerol ester]
hydrolysis by hBAT5 (substrate utilization, in words) (hBAT5 [2]; with 0.5% BSA, 60 min): low

COc1nn(-c2ccc(Br)cc2)c(=O)o1 [compound 45]
IC50 (hBAT5 [1]; [4]): 110 nM

CCCCCCCC/C=C\CCCCCCCC(=O)OC[C@@H](O)COP(=O)(O)OC[C@H](N)C(=O)O [LPS, 1-oleoyl-lysophosphatidylserine]
fatty acid release by hBAT5 (in words) (hBAT5 [3]): no statistically significant liberation of oleic acid
fatty acid release by hABHD12 (in words) (hABHD12): catalyzed oleic acid release

CCCCCCCCCCCCCCCCCC(=O)OC[C@@H](O)CO [1-SG]
hydrolysis by hBAT5 (substrate utilization, in words) (hBAT5 [2]; with 0.5% BSA, 60 min): not utilized

COc1nn(-c2cccc(F)c2)c(=O)o1 [compound 43]
IC50 (hBAT5 [1]; [5]): 41.7 nM

O=c1oc(Oc2ccc([N+](=O)[O-])cc2)nn1-c1cccc([N+](=O)[O-])c1 [compound 55, 5-(4-Nitrophenoxy)-3-(3-nitrophenyl)-1,3,4-oxadiazol-2(3H)-one]
hBAT5 inhibitory activity (in words) (hBAT5 [1]): weakest inhibitor of this series
remaining activity at 10 µM (hBAT5 [1]; 1-LG 25 µM): 50.5 ± 3.7%

COc1ccc(Oc2nn(-c3cccc([N+](=O)[O-])c3)c(=O)o2)cc1 [compound 54, 5-(4-Methoxyphenoxy)-3-(3-nitrophenyl)-1,3,4-oxadiazol-2(3H)-one]
IC50 (hBAT5 [1]; [4]): 631 nM
fold decrease in activity when methyl (40) is replaced (hBAT5 [1]): 10 fold

COc1nn(-c2ccc(I)cc2)c(=O)o1 [compound 46]
IC50 (hBAT5 [1]; [4]): 355 nM

CCCCCCCC/C=C\CCCCCCCC(=O)OC[C@@H](O)COP(=O)(O)O [LPA, 1-oleoyl-lysophosphatidic acid]
fatty acid release by hBAT5 (in words) (hBAT5 [3]): no statistically significant liberation of oleic acid
fatty acid release by hABHD12 (in words) (hABHD12): not from LPA

CCCCC/C=C\C/C=C\C/C=C\C/C=C\CCCC(=O)OC[C@@H](O)CO [1-AG, 1-arachidonoylglycerol]
fatty acid release by hBAT5 (in words) (hBAT5 [3]): hydrolyzed
fatty acid release by hABHD12 (in words) (hABHD12): hydrolyzed

COc1nn(-c2cccc(C#N)c2)c(=O)o1 [compound 47]
IC50 (hBAT5 [1]; [4]): 78 nM

O=c1oc(OCc2ccccc2)nn1-c1cccc([N+](=O)[O-])c1 [compound 53, 5-(Benzyloxy)-3-(3-nitrophenyl)-1,3,4-oxadiazol-2(3H)-one]
fold decrease in activity when methyl (40) is replaced (hBAT5 [1]): 24 fold
IC50 (hBAT5 [1]; [5]): 1480 nM

CCCCC[C@H](O)/C=C/[C@H]1C(=O)C[C@H](O)[C@@H]1C/C=C\CCCC(=O)OCC(O)CO (some centres unmarked) [PGD2-G, prostaglandin D2-1-glycerol ester]
hydrolysis by hBAT5 (substrate utilization, in words) (hBAT5 [2]; with 0.5% BSA, 60 min): to lesser extend
